# From patent US9481670B2, “Triazine compounds” (Sphaera Pharma PTE. Ltd., priority 2011, dated 2016)
# Target: T1, PI3K alpha (Homo sapiens, UniProt P42336)
# T1 construct: purchased Millipore Upstate
# Experiment: P110 Alpha TR-FRET Assay (PI3K alpha kinase assay, HTRF Transcreener ADP Assay)
# Format: biochemical
# Settings: PI3K (WT)
# Summary of the method: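 HTRF Transcreener ADP read-out of ADP formed by PI3K (50 ng enzyme) in 50 mM HEPES pH 7.5, 5 mM MgCl2, 1 mM DTT, 30 μM Na3VO4. Compound preincubated with enzyme 20 min; reaction started with 10 μM ATP and 5 μM PIP2, run 20 min, then ADP-d2/anti-ADP cryptate detection for 1 h.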
# T1 sequence (P42336 whole entry): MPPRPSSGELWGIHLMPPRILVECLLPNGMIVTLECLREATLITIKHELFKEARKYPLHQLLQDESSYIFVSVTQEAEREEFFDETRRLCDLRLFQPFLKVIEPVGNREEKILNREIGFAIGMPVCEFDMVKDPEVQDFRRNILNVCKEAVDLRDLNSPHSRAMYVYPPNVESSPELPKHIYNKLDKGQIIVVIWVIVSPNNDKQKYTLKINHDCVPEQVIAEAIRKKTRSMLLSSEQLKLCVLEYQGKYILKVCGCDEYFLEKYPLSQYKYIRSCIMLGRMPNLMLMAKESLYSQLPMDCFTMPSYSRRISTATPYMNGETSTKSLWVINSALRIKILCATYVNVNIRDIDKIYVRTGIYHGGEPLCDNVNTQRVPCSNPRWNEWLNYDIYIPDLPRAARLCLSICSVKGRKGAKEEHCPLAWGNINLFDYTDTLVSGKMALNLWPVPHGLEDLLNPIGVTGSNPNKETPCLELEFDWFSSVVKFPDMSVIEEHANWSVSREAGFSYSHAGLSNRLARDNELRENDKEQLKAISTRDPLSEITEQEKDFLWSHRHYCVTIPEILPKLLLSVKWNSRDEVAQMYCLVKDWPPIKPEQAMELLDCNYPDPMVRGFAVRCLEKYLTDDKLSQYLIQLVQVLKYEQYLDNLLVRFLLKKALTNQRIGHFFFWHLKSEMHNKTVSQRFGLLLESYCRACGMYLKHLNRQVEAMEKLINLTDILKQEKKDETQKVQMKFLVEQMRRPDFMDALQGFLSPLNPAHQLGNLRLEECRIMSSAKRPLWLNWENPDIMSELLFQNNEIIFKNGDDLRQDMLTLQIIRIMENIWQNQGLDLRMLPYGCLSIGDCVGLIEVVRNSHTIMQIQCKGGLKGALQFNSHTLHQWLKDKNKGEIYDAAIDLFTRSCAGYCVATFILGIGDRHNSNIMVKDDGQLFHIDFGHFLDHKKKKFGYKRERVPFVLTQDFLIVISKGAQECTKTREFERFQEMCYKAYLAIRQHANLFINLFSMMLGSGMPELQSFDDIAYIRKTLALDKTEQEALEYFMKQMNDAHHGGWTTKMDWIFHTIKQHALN
# T1 sequence (P27986 whole entry partner): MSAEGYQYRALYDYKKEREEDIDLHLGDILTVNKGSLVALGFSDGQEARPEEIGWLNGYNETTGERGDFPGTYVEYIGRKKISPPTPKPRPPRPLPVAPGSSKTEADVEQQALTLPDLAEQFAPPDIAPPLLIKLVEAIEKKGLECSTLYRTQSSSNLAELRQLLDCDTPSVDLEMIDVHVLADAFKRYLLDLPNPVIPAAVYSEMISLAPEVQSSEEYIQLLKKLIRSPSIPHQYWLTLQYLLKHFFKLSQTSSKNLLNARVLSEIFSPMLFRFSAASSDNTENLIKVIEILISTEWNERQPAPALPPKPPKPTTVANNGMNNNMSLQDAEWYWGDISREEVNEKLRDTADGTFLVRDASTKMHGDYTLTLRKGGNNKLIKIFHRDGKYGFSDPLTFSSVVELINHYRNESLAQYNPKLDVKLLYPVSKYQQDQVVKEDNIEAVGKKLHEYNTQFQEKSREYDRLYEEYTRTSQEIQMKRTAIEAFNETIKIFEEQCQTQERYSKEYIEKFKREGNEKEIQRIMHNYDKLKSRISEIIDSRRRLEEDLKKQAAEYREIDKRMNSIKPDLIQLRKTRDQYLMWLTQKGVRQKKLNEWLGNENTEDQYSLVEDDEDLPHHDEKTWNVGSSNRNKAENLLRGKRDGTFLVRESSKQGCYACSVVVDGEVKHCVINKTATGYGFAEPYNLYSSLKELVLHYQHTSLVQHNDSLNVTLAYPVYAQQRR
row,SMILES,IC50 [µM]
1,"Nc1ccc(-c2nc(N3CCNCC3)nc(N3CCOCC3)n2)cn1 [Compound 1134, 5-18-[4-5-(morpholin-4-yl)-6-3-(piperazin-1-yl)-1,3,5-triazin-2-yl]pyridin-2-amine]",< 5
2,"c1cc(-c2nc(N3CCOCC3)nc(N3CCOCC3)n2)c2cn[nH]c2c1 [Compound 1233, 4-8-[4-3,6-5-bis(morpholin-4-yl)-1,3,5-triazin-2-yl]-1H-indazole]",< 5
3,"CN(C)C(=O)CNc1nc(-c2cccc(C#N)c2)nc(N2CCOCC2)n1 [Compound 1141, 2-((4-(3-cyanophenyl)-6-morpholino-1,3,5-triazin-2-yl)amino)-N,N-dimethylacetamide]",> 5
4,CNC(=O)c1ccc(Oc2nc(-c3cnc(N)s3)nc(N3CCOCC3)n2)cc1 [Compound 1082],< 5
5,"CS(=O)(=O)N1CCN(c2nc(-c3cnc(N)nc3)nc(N3CCOCC3)n2)CC1 [Compound 1062, 5-13-[4-3-(4-22-methanesulfonylpiperazin-1-yl)-6-5-(morpholin-4-yl)-1,3,5-triazin-2-yl]pyrimidin-2-amine]",< 5
6,"CS(=O)(=O)N[C@H]1CCC[C@H](Oc2nc(-c3cccc4c3cnn4S(C)(=O)=O)nc(N3CCOCC3)n2)C1 [Compound 1048, N-[(1S,3S)-3-14-{[4-1-(1-27-methanesulfonyl-1H-indazol-4-yl)-6-5-(morpholin-4-yl)-1,3,5-triazin-2-yl]oxy}cyclohexyl]methanesulfonamide]",< 5
7,"CN(C)C(=O)c1ccc(Oc2nc(-c3ccc(N)nc3)nc(N3CCOCC3)n2)cc1 [Compound 1027, 4-14-{[4-1-(6-17-aminopyridin-3-yl)-6-5-(morpholin-4-yl)-1,3,5-triazin-2-yl]oxy}-N,N-dimethylbenzamide]",< 5
8,"CN(C)C(=O)Cc1ccc(Oc2nc(-c3cnc(N)nc3)nc(N3CCOCC3)n2)cc1 [Compound 1006, 2-26-(4-20-{[4-3-(2-15-aminopyrimidin-5-yl)-6-5-(morpholin-4-yl)-1,3,5-triazin-2-yl]oxy}phenyl)-N,N-dimethylacetamide]",< 5
9,"COc1ccc(F)c(-c2nc(NCC(=O)O)nc(N3CCOCC3)n2)c1 [Compound 1156, 2-((4-(2-fluoro-5-methoxyphenyl)-6-morpholino-1,3,5-triazin-2-yl)amino)acetic acid]",> 5
10,"CS(=O)(=O)Nc1ccc(Oc2nc(-c3cccc4[nH]ncc34)nc(N3CCOCC3)n2)cc1 [Compound 1093, N-(4-14-{[4-1-(1H-indazol-4-yl)-6-5-(morpholin-4-yl)-1,3,5-triazin-2-yl]oxy}phenyl)methanesulfonamide]",< 5
11,"COc1cccc(-c2nc(NCC(=O)O)nc(N3CCOCC3)n2)c1 [Compound 1183, 2-((4-(3-methoxyphenyl)-6-morpholino-1,3,5-triazin-2-yl)amino)acetic acid]",> 5
12,"O=C1CCc2cc(Oc3nc(-c4cccc5[nH]ncc45)nc(N4CCOCC4)n3)ccc2N1 [Compound 1063, 6-14-{[4-1-(1H-indazol-4-yl)-6-5-(morpholin-4-yl)-1,3,5-triazin-2-yl]oxy}-1,2,3,4-tetrahydroquinolin-2-one]",< 5
13,"CN(C)C(=O)N1CC[C@H](COc2nc(-c3ccc(N)nc3)nc(N3CCOCC3)n2)C1 [Compound 1025, 3-21-({[4-3-(6-16-aminopyridin-3-yl)-6-5-(morpholin-4-yl)-1,3,5-triazin-2-yl]oxy}methyl)-N,N-dimethylpyrrolidine-1-carboxamide]",< 5
14,"Nc1nc(-c2cccc3[nH]ncc23)nc(N2CCOCC2)n1 [Compound 1231, 4-2-(1H-indazol-4-yl)-6-0-(morpholin-4-yl)-1,3,5-triazin-2-amine]",> 5
15,"CN(C)C(=O)c1ccc(Oc2nc(-c3cccc4[nH]ncc34)nc(-n3ccnc3)n2)cc1 [Compound 1016, 4-9-{[4-5-(1H-imidazol-1-yl)-6-1-(1H-indazol-4-yl)-1,3,5-triazin-2-yl]oxy}-N,N-dimethylbenzamide]",< 5
16,"CN(C)C(=O)[C@H]1CC[C@@H](Oc2nc(-c3cccc4[nH]ncc34)nc(N3CCOCC3)n2)CC1 [Compound 1143, (1s,4s)-4-21-{[4-1-(1H-indazol-4-yl)-6-5-(morpholin-4-yl)-1,3,5-triazin-2-yl]oxy}-N,N-dimethylcyclohexane-1-carboxamide]",< 5
17,"Nc1ccc(-c2nc(CO)nc(N3CCOCC3)n2)cn1 [Compound 1071, 1-7-[4-3-(6-16-aminopyridin-3-yl)-6-5-(morpholin-4-yl)-1,3,5-triazin-2-yl]methanol]",< 5
18,"O=C(O)CNc1nc(-c2ccc(O)nc2)nc(N2CCOCC2)n1 [Compound 1176, 2-((4-(6-hydroxypyridin-3-yl)-6-morpholino-1,3,5-triazin-2-yl)amino)acetic acid]",> 5
19,"CN(C)C(=O)c1ccc(Oc2nc(-c3cccc4[nH]ncc34)nc(N3CCC(=O)CC3)n2)cc1 [Compound 1044, 4-8-{[4-5-(1H-indazol-4-yl)-6-3-(4-30-oxopiperidin-1-yl)-1,3,5-triazin-2-yl]oxy}-N,N-dimethylbenzamide]",> 5

row,SMILES,IC50 [µM]
1,"ON=C1CCN(c2nc(-c3cccc4[nH]ncc34)nc(N3CCOCC3)n2)CC1 [Compound 1208, N-{1-8-[4-1-(1H-indazol-4-yl)-6-5-(morpholin-4-yl)-1,3,5-triazin-2-yl]piperidin-4-ylidene}hydroxylamine]",< 5
2,"CN(C)C(=O)CNc1nc(-c2ccc(O)nc2)nc(N2CCOCC2)n1 [Compound 1145, 2-((4-(6-hydroxypyridin-3-yl)-6-morpholino-1,3,5-triazin-2-yl)amino)-N,N-dimethylacetamide]",< 5
3,"c1cc(Nc2nc(-c3cccc4[nH]ncc34)nc(N3CCOCC3)n2)c2cn[nH]c2c1 [Compound 1205, N-(4-(1H-indazol-4-yl)-6-morpholino-1,3,5-triazin-2-yl)-1H-indazol-4-amine]",< 5
4,"CN(C)C(=O)c1ccc(Oc2nc(-c3cnc(N)cn3)nc(N3CCOCC3)n2)cc1 [Compound 1009, 4-14-{[4-1-(5-17-aminopyrazin-2-yl)-6-5-(morpholin-4-yl)-1,3,5-triazin-2-yl]oxy}-N,N-dimethylbenzamide]",< 5
5,"CC(C)(CO)Nc1nc(-c2cccc3[nH]ncc23)nc(N2CCOCC2)n1 [Compound 1232, 2-((4-(1H-indazol-4-yl)-6-morpholino-1,3,5-triazin-2-yl)amino)-2-methylpropan-1-ol]",< 5
6,"CC(C)(C)OC(=O)N1CCC(NC(=O)c2cccc(Nc3nc(-c4cccc5[nH]ncc45)nc(N4CCOCC4)n3)c2)CC1 [Compound 1116, tert-butyl 4-(3-((4-(1H-indazol-4-yl)-6-morpholino-1,3,5-triazin-2-yl)amino)benzamido)piperidine-1-carboxylate]",< 5
7,"CS(=O)(=O)N[C@@H]1CC[C@@H](Oc2nc(-c3cccc4[nH]ncc34)nc(N3CCOCC3)n2)C1 [Compound 1083, N-[(1R,3R)-3-14-{[4-1-(1H-indazol-4-yl)-6-5-(morpholin-4-yl)-1,3,5-triazin-2-yl]oxy}cyclopentyl]methanesulfonamide]",< 5
8,"Nc1ncc(-c2nc(N3CCNCC3)nc(N3CCOCC3)n2)cn1 [Compound 1077, 5-13-[4-5-(morpholin-4-yl)-6-3-(piperazin-1-yl)-1,3,5-triazin-2-yl]pyrimidin-2-amine]",< 5
9,"Oc1cccc(-c2nc(N3CCOCC3)nc(N3CCOCC3)n2)c1 [Compound 1160, 3-6-[4-1,6-2-bis(morpholin-4-yl)-1,3,5-triazin-2-yl]phenol]",< 5
10,"NC(=O)c1cccn1-c1nc(-c2cccc3[nH]ncc23)nc(N2CCOCC2)n1 [Compound 1182, 1-8-[4-1-(1H-indazol-4-yl)-6-5-(morpholin-4-yl)-1,3,5-triazin-2-yl]-1H-pyrrole-2-carboxamide]",< 5
11,"CS(=O)(=O)N1CCN(C(=O)CNc2nc(-c3ccc(N)cc3)nc(N3CCOCC3)n2)CC1 [Compound 1120, 2-((4-(4-aminophenyl)-6-morpholino-1,3,5-triazin-2-yl)amino)-1-(4-(methylsulfonyl)piperazin-1-yl)ethanone]",> 5
12,"NC(=O)c1sccc1Nc1nc(-c2cccc3[nH]ncc23)nc(N2CCOCC2)n1 [Compound 1158, 3-((4-(1H-indazol-4-yl)-6-morpholino-1,3,5-triazin-2-yl)amino)thiophene-2-carboxamide]",< 5
13,"CSCCC(Nc1nc(-c2cccc(O)c2)nc(N2CCOCC2)n1)C(=O)O (stereo not shown) [Compound 1136, 2-((4-(3-hydroxyphenyl)-6-morpholino-1,3,5-triazin-2-yl)amino)-4-(methylthio)butanoic acid]",< 5
14,"CN(C)C(=O)Cc1cccc(Oc2nc(-c3ccc(N)nc3)nc(N3CCOCC3)n2)c1 [Compound 1013, 2-26-(3-20-{[4-1-(6-11-aminopyridin-3-yl)-6-5-(morpholin-4-yl)-1,3,5-triazin-2-yl]oxy}phenyl)-N,N-dimethylacetamide]",< 5
15,"O=C(O)c1cccc(Nc2nc(-c3cccc4[nH]ncc34)nc(N3CCOCC3)n2)c1 [Compound 1202, 3-((4-(1H-indazol-4-yl)-6-morpholino-1,3,5-triazin-2-yl)amino)benzoic acid]",< 5
16,"c1cc(-c2nc(OC3CCNCC3)nc(N3CCOCC3)n2)c2cn[nH]c2c1 [Compound 1151, 4-7-[4-5-(morpholin-4-yl)-6-3-(piperidin-4-yloxy)-1,3,5-triazin-2-yl]-1H-indazole]",< 5
17,"CN(C)C(=O)Cc1ccc(Oc2nc(-c3ccc(N)nc3)nc(N3CCOCC3)n2)cc1 [Compound 1017, 2-20-(4-9-{[4-1-(6-12-aminopyridin-3-yl)-6-5-(morpholin-4-yl)-1,3,5-triazin-2-yl]oxy}phenyl)-N,N-dimethylacetamide]",< 5
18,"CN(C)C(=O)c1ccc(Oc2nc(-c3ccc(NN)nc3)nc(N3CCOCC3)n2)cc1 [Compound 1019, 4-14-{[4-1-(6-26-hydrazinylpyridin-3-yl)-6-5-(morpholin-4-yl)-1,3,5-triazin-2-yl]oxy}-N,N-dimethylbenzamide]",< 5
